SMILES strings stand for the structures.

In PMC7344947, “Phytochemicals and Enzyme Inhibitory Capacities of the Methanolic Extracts from the Italian Apple Cultivar Mela Rosa dei Monti Sibillini” (Pharmaceuticals, 2020) one finds inhibition data, which are given here for 1 compound.

In this test the target is T1, α-Glucosidase from Saccharomyces cerevisiae (Saccharomyces cerevisiae, UniProt P53341).
T1 construct: purchased Sigma-Aldrich (Madrid, Spain)
In words: α-Glucosidase inhibition assay (pNPG, absorbance 405 nm). Format: biochemical. Conditions: 1 mg/mL. The method, then: α-Glucosidase inhibition assay was performed following the previous method. Each 96-well microplate contained: 50 μL apple extract or the reference at different concentration and 100 μL of α-GLU (1U/mL) in phosphate buffer (pH 6.9). After 10 min, 50 μL of PNPG (50 μL) were added and incubated for 20 min at 37 °C. The absorbance was read at 405 nm. The percentage inhibition of α-glucosidase was calculated using the following formula:% inhibition = [(Abscontrol − AbsSample)/Abscontrol] × 100(1)

T1 sequence (P53341 whole entry): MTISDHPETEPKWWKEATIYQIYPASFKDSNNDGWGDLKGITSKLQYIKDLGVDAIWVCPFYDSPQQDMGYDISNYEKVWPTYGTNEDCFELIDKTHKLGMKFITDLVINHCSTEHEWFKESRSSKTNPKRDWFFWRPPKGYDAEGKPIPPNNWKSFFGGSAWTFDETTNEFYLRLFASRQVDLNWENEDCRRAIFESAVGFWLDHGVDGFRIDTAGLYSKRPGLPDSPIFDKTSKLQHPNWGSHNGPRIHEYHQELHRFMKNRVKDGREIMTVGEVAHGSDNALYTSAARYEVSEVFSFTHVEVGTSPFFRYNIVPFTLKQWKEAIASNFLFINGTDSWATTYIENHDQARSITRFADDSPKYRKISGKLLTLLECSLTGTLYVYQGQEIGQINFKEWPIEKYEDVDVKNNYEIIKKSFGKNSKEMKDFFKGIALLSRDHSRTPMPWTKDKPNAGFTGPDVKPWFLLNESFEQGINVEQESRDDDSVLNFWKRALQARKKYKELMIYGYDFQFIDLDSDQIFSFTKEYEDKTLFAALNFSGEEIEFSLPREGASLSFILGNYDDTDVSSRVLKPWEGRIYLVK

On to `C[C@H]1O[C@H](O[C@H]2[C@H](O)[C@@H](O)[C@@H](O[C@H]3[C@H](O)[C@@H](O)C(O)O[C@@H]3CO)O[C@@H]2CO)[C@H](O)[C@@H](O)[C@@H]1N[C@H]1C=C(CO)[C@@H](O)[C@H](O)[C@H]1O` (stereo partly shown) [Acarbose], for which the inhibition at 1000 µg/mL worked out at 100%.
